Measurements taken from US6914045B2, “Glycopeptide antibiotics” (Wyeth Holdings Corporation, priority 2001, dated 2005).

How the values were obtained:
Test in all cases: in vitro antibacterial evaluation, MIC by broth dilution
Assay type in all cases: cell-based
Staphylococcus sp. = details: broth dilution, 18 hours at 35° C.
How it was run: (§1)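 Read-out: the lowest concentration at which the test strain fails to grow. Serial dilutions (64-0.06 μg/mL) in Muller-Hinton II […], 5×10^5 CFU/mL inoculum, NCCLS M7-A2 procedure.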

Enterococcus sp. = details: broth dilution, 18 hours at 35° C.
How it was run: as §1

Streptococcus sp. = details: broth dilution, 18 hours at 35° C.
How it was run: as §1

Escherichia coli = details: 18 hours at 35° C.

CC(c1ccccc1)C1NC(=O)CNC(=O)C(CO)NC(=O)C(C(O)C2CNC(=N)N2C2OC(CO)C(O)C(O)C2O)NC(=O)C(C(O)C2CNC(=N)N2)NC(=O)C(Cc2ccc(OC3OC(CO)C(OC4OC(COCc5cccs5)C(O)C(O)C4O)C(O)C3O)cc2)NC1=O (stereo not shown) [Example 244]
16 µg/mL: MIC Staphylococcus aureus (GC 3053) (Staphylococcus sp.) | MIC Staphylococcus aureus (GC 3053) (Staphylococcus sp.; strain GC 3053)
>64 µg/mL: MIC Escherichia coli (ATCC 25922) (Escherichia coli)
32 µg/mL: MIC Enterococcus avium (GC 4558) (Enterococcus sp.) | MIC Enterococcus faecalis (ATCC 29212) (Enterococcus sp.) | MIC Enterococcus faecalis (GC 2242) (Enterococcus sp.) | MIC Enterococcus faecalis (GC 2691) (Enterococcus sp.) | MIC Enterococcus faecalis (GC 4552) (Enterococcus sp.) | MIC Enterococcus faecalis (GC 4553) (Enterococcus sp.) | MIC Enterococcus faecalis (GC 6189) (Enterococcus sp.) | MIC Enterococcus faecium (GC 2243) (Enterococcus sp.) | MIC Enterococcus faecium (GC 4556) (Enterococcus sp.) | MIC Enterococcus faecalis (ATCC 29212) (Enterococcus sp.; strain ATCC 29212) | MIC Enterococcus faecium (GC 2243) (Enterococcus sp.; strain GC 2243) | MIC Enterococcus faecalis (GC 4552) (Enterococcus sp.; strain GC 4552) | MIC Enterococcus faecalis (GC 4553) (Enterococcus sp.; strain GC 4553) | MIC Enterococcus faecium (GC 4556) (Enterococcus sp.; strain GC 4556) | MIC Enterococcus avium (GC 4558) (Enterococcus sp.; strain GC 4558) | MIC Enterococcus faecalis (GC 6189) (Enterococcus sp.; strain GC 6189) | MIC Enterococcus faecalis (GC 2242) (Enterococcus sp.; inoculum 5×10^5 CFU/mL, strain GC 2242) | MIC Enterococcus faecalis (GC 2691) (Enterococcus sp.; inoculum 5×10^5 CFU/mL, strain GC 2691)
0.5 µg/mL: MIC Streptococcus pneumoniae (GC 1894) (Streptococcus sp.) | MIC Streptococcus pneumoniae (GC 1894) (Streptococcus sp.; inoculum 5×10^5 CFU/mL, strain GC 1894)
8 µg/mL: MIC Staphylococcus aureus (ATCC 29213) (Staphylococcus sp.) | MIC Staphylococcus aureus (GC 1131) (Staphylococcus sp.) | MIC Staphylococcus aureus (GC 3051) (Staphylococcus sp.) | MIC Staphylococcus aureus (GC 4541) (Staphylococcus sp.) | MIC Staphylococcus aureus (GC 4544) (Staphylococcus sp.) | MIC Staphylococcus aureus (GC 4545) (Staphylococcus sp.) | MIC Staphylococcus aureus (ATCC 29213) (Staphylococcus sp.; strain ATCC 29213) | MIC Staphylococcus aureus (GC 1131) (Staphylococcus sp.; strain GC 1131) | MIC Staphylococcus aureus (GC 3051) (Staphylococcus sp.; strain GC 3051) | MIC Staphylococcus aureus (GC 4541) (Staphylococcus sp.; strain GC 4541) | MIC Staphylococcus aureus (GC 4544) (Staphylococcus sp.; strain GC 4544) | MIC Staphylococcus aureus (GC 4545) (Staphylococcus sp.; strain GC 4545)
1 µg/mL: MIC Staphylococcus aureus (GC 4542) (Staphylococcus sp.) | MIC Staphylococcus aureus (GC 4542) (Staphylococcus sp.; strain GC 4542) | MIC Streptococcus pneumoniae (ATCC 6301) (Streptococcus sp.) | MIC Streptococcus pneumoniae (GC 4565) (Streptococcus sp.) | MIC Streptococcus pneumoniae (ATCC 6301) (Streptococcus sp.; inoculum 5×10^5 CFU/mL, strain ATCC 6301) | MIC Streptococcus pneumoniae (GC 4565) (Streptococcus sp.; inoculum 5×10^5 CFU/mL, strain GC 4565)
64 µg/mL: MIC Enterococcus faecalis (GC 3059) (Enterococcus sp.) | MIC Enterococcus faecalis (GC 4554) (Enterococcus sp.) | MIC Enterococcus faecalis (GC 4554) (Enterococcus sp.; strain GC 4554) | MIC Enterococcus faecalis (GC 3059) (Enterococcus sp.; inoculum 5×10^5 CFU/mL, strain GC 3059) | MIC Escherichia coli (GC 4559) (Escherichia coli)
4 µg/mL: MIC Coagulase Negative Staphylococcus (GC 4547) (Staphylococcus sp.) | MIC Coagulase Negative Staphylococcus (GC 4551) (Staphylococcus sp.) | MIC Staphylococcus aureus-SMITH (GC 4543) (Staphylococcus sp.) | MIC Staphylococcus haemolyticus (GC 4546) (Staphylococcus sp.) | MIC Staphylococcus aureus-SMITH (GC 4543) (Staphylococcus sp.; strain GC 4543) | MIC Staphylococcus haemolyticus (GC 4546) (Staphylococcus sp.; strain GC 4546) | MIC Coagulase Negative Staphylococcus (GC 4547) (Staphylococcus sp.; strain GC 4547) | MIC Coagulase Negative Staphylococcus (GC 4551) (Staphylococcus sp.; strain GC 4551) | MIC Enterococcus faecium (GC 4557) (Enterococcus sp.) | MIC Enterococcus faecium (GC 4557) (Enterococcus sp.; strain GC 4557) | MIC Streptococcus agalactiae (GC 4564) (Streptococcus sp.) | MIC Streptococcus agalactiae (GC 4564) (Streptococcus sp.; inoculum 5×10^5 CFU/mL, strain GC 4564)
2 µg/mL: MIC Coagulase Negative Staphylococcus (GC 4548) (Staphylococcus sp.) | MIC Coagulase Negative Staphylococcus (GC 4549) (Staphylococcus sp.) | MIC Coagulase Negative Staphylococcus (GC 6257) (Staphylococcus sp.) | MIC Coagulase Negative Staphylococcus (GC 4548) (Staphylococcus sp.; strain GC 4548) | MIC Coagulase Negative Staphylococcus (GC 4549) (Staphylococcus sp.; strain GC 4549) | MIC Coagulase Negative Staphylococcus (GC 6257) (Staphylococcus sp.; strain GC 6257) | MIC Streptococcus pyogenes (GC 4563) (Streptococcus sp.) | MIC Streptococcus pyogenes (GC 4563) (Streptococcus sp.; inoculum 5×10^5 CFU/mL, strain GC 4563) | MIC Escherichia coli (GC 4560) (Escherichia coli)
